Measurements: patent US20260248922A1, “TREATMENT OF SIGNS, SYMPTOMS AND/OR COMPLICATIONS OF VIRAL, BACTERIAL, PROTOZOAL, AND/OR FUNGAL INFECTIONS BY HIGH PENETRATION PRODRUGS” (priority 2022, published 2026)
Read-outs that look alike come from different tables or passages of the source.

What was measured:
[1] = rabbit
H1N1 virus [2] = assay: H1N1 virus infection mouse model (Example 66); assay type: in vivo, mice; conditions: transdermal once a day
Experimental: (§1) A total of seventy mice (7 groups, 10/group) were used in this study. At day 0, mice were anesthetized with isoflurane and held in a dorsal recumbent position for administration of 0.1×TCID50/mouse virus (new batch) by internasal instillation, from day 2 post challenge, mice were received a single dose of different concentrations of test article or vehicle control once a day up to 15th day with dose initiation on day 2 post challenge. Group 1 served as an infected control group and was treated with vehicle (35% ethanol). […] Mice were observed following viral challenge for clinical signs of illness including body weights, health score, morbidity and mortality.
Lung lesions and peribronchiolitis of all deceased and surviving animals were characterized (Table 9).

H1N1 virus [3] = assay: H1N1 virus infection mouse model (Example 67); assay type: in vivo, mice; conditions: transdermal once a day
Experimental: A total of seventy mice (7 groups, 10/group) were used in this study. At day 0, mice were anesthetized with isoflurane and held in a dorsal recumbent position for administration of 0.1×TCID50/mouse virus (new batch) by internasal instillation, from day 2 post challenge, mice were received a single dose of different concentrations of test article or vehicle control once a day up to 15th day with dose initiation on day 2 post challenge. Group 1 served as an infected control group and was treated with vehicle (35% ethanol). 7% of (pyrrolidin-2-yl)methyl 2-[(2,3-dimethylphenyl)amino]benzoate hydrochloride in 35% ethanol (low dose: 25.0 mg/kg, group 2, mid dose: 50.1 mg/kg, group 3, and high dose: 100.1 mg/kg, group 4) and 7% of (pyrrolidin-2-yl)methyl α-methyl-4-(2-thienylcarbonyl)benzeneacetate hydrochloride in 35% ethanol (low dose: 24.9 mg/kg, group 5, mid dose: 49.8 mg/kg, group 6, and high dose: 99.6 mg/kg, group 7) and vehicle (35% ethanol) were given by transdermal on the back of animal in an area of 2 cm×5 cm, 1.5 cm×3.5 cm, or 1 cm×2.5 cm for high, middle or low dose. Mice were observed following viral challenge for clinical signs of illness including body weights, health score, morbidity and mortality.
Lung lesions and peribronchiolitis of all deceased and surviving animals were characterized (Table 11).

LPS-induced fever = assay: Antipyretic activity, fever induced by LPS in rats; assay type: in vivo, Sprague Dawley rats
Experimental: The body temperature of rats was taken at 0 (2 hours after the challenge), 90 min, 180 min, and 270 min after the administration of the test compounds.

paw edema = assay: Antiinflammatory activity, carrageenan paw edema in rats; assay type: in vivo, Wistar Rats; conditions: topical, 100 mg/kg
H1N1 virus [4] = assay: H1N1 virus infection mouse model (Example 68); assay type: in vivo, mice; conditions: transdermal once a day
Experimental: A total of seventy mice (7 groups, 10/group) were used in this study. At day 0, mice were anesthetized with isoflurane and held in a dorsal recumbent position for administration of 0.1×TCID50/mouse virus (new batch) by internasal instillation, from day 2 post challenge, mice were received a single dose of different concentrations of test article or vehicle control once a day up to 15th day with dose initiation on day 2 post challenge. Group 1 served as an infected control group and was treated with vehicle (35% ethanol). 7% (pyrrolidin-2-yl)methyl 5-(2,4-difluorophenyl) salicylate hydrochloride in 35% ethanol (low dose: 25.0 mg/kg, group 2, mid dose: 49.9 mg/kg, group 3, and high dose: 99.8 mg/kg, group 4) and 7% (pyrrolidin-2-yl)methyl 5-(2,4-difluorophenyl) acetylsalicylate hydrochloride in 35% ethanol (low dose: 24.7 mg/kg, group 5, mid dose: 49.4 mg/kg, group 6, and high dose: 98.7 mg/kg, group 7) and vehicle (35% ethanol) were given by transdermal on the back of animal in an area of 2 cm×5 cm, 1.5 cm×3.5 cm, or 1 cm×2.5 cm for high, middle or low dose. Mice were observed following viral challenge for clinical signs of illness including body weights, health score, morbidity and mortality.
Lung lesions and peribronchiolitis of all deceased and surviving animals were characterized (Table 13).

[5] = test system: cecal slurry-induced sepsis; assay: Cecal slurry-induced sepsis mouse model (Example 75); assay type: in vivo, C57/BL6 mice; conditions: transdermal once a day
Experimental: as §1, with “seventy C57/BL6” for “seventy”, “of 10 mg/mouse cecal slurry” for “of 0.1×TCID50/mouse virus (new batch)”, “by intraperitoneal (IP) injections,” for “by internasal instillation,”, “from hour” for “from day”, “on hour” for “on day”

Structure (SMILES) | The cumulative amount of test compounds ([1]; 1 h) [mg] | The cumulative amount of test compounds ([1]; 2 h) [mg] | The cumulative amount of test compounds ([1]; 4 h) [mg] | The cumulative amount of test compounds ([1]; 8 h) [mg] | other results
CCCc1c(OCCCS(=O)(=O)c2ccc(C(=O)CCC(=O)OCC3CCCN3)cc2)ccc(C(C)=O)c1O.Cl (centres unmarked) [Example 19] | 0.50 | 1.02 | 2.18 | 4.48 | –
CCCc1c(OCCCS(=O)(=O)c2ccc(C(=O)CCC(=O)O)cc2)ccc(C(C)=O)c1O [Parent drug-1] | 0.000 | 0.001 | 0.001 | 0.002 | –
CC(=O)O.CCN(CC)CCOC(=O)CC1=C(C)/C(=C/c2ccc([S+](C)[O-])cc2)c2ccc(F)cc21 (centres unmarked) [Example 8] | – | – | – | – | survival (H1N1 virus [2]; group 5, low dose 25.5 mg/kg): 60%; survival (H1N1 virus [2]; group 6, mid dose 50.9 mg/kg): 70%; survival (H1N1 virus [2]; group 7, high dose 101.9 mg/kg): 50%
O=C(O)Cc1ccccc1Nc1c(Cl)cccc1Cl [Parent drug-8] | 0.000 | 0.001 | 0.002 | 0.003 | –
Cc1cccc(Nc2ccccc2C(=O)OCC2CCCN2)c1C.Cl (centres unmarked) [Example 17, (pyrrolidin-2-yl)methyl 2-[(2,3-dimethylphenyl)amino]benzoate hydrochloride] | – | – | – | – | survival (H1N1 virus [3]; group 2, low dose 25.0 mg/kg): 30%; survival (H1N1 virus [3]; group 3, mid dose 50.1 mg/kg): 50%; survival (H1N1 virus [3]; group 4, high dose 100.1 mg/kg): 50%
CC(C)c1ccc2c(c1)c(SC(C)(C)C)c(CC(C)(C)C(=O)O)n2Cc1ccc(Cl)cc1 [Parent drug-2] | 0.001 | 0.001 | 0.001 | 0.003 | –
CC(C)Cc1ccc(C(C)C(=O)O)cc1 (centres unmarked) [Ibuprofen, reference compound] | – | – | – | – | body temperature (Mean) (LPS-induced fever; T = 0 min (2 hours after LPS challenge), group C, topical, 100 mg/kg, 7% in 70% ethanol): 38.18; body temperature (Mean) (LPS-induced fever; T = 90 min, group B, oral, 100 mg/kg): 38.01; body temperature (Mean) (LPS-induced fever; T = 90 min, group C, topical, 100 mg/kg, 7% in 70% ethanol): 38.26; body temperature (Mean) (LPS-induced fever; T = 180 min, group B, oral, 100 mg/kg): 37.34; body temperature (Mean) (LPS-induced fever; T = 180 min, group C, topical, 100 mg/kg, 7% in 70% ethanol): 38.27; body temperature (Mean) (LPS-induced fever; T = 270 min, group B, oral, 100 mg/kg): 37.02; body temperature (Mean) (LPS-induced fever; T = 270 min, group C, topical, 100 mg/kg, 7% in 70% ethanol): 37.98; antipyretic activity (in words) (LPS-induced fever; topical, 100 mg/kg): did not show any antipyretic activity; anti-inflammatory activity (in words) (paw edema): did not show any anti-inflammatory activity
Cl.O=C(OCC1CCCN1)c1cc(-c2ccc(F)cc2F)ccc1O (centres unmarked) [Example 27, (pyrrolidin-2-yl)methyl 5-(2,4-difluorophenyl) salicylate hydrochloride] | – | – | – | – | survival (H1N1 virus [4]; group 2, low dose 25.0 mg/kg): 30%; survival (H1N1 virus [4]; group 3, mid dose 49.9 mg/kg): 50%; survival (H1N1 virus [4]; group 4, high dose 99.8 mg/kg): 60%
CN(C)C(=O)CCSC(SCCC(=O)OCC1CCCN1)c1cccc(/C=C/c2ccc3ccc(Cl)cc3n2)c1.Cl (centres unmarked) [Example 7, (pyrrolidin-2-yl)methyl 3-[[3-[(E)-2-(7-chloroquinolin-2-yl)ethenyl]phenyl]-[3-(dimethylamino)-3-oxopropyl]sulfanylmethyl]sulfanylpropanoate hydrochloride] | 0.46 | 1.01 | 2.09 | 4.29 | –
CCN(CC)CCOC(=O)CC1(CS[C@H](CCc2ccccc2C(C)(C)O)c2cccc(C=Cc3ccc4ccc(Cl)cc4n3)c2)CC1.Cl [Example 3] | 0.36 | 0.78 | 1.77 | 3.87 | –
O=C(O)C(c1ccc(OCc2ccc3ccccc3n2)cc1)C1CCCC1 (centres unmarked) [Parent drug-5] | 0.001 | 0.001 | 0.001 | 0.002 | –
CC(C(=O)OCC1CCCN1)c1ccc(-c2ccccc2)c(F)c1.Cl (centres unmarked) [Example 15, (pyrrolidin-2-yl)methyl 2-(2-fluorobiphenyl-4-yl) propanoate hydrochloride] | – | – | – | – | body temperature (Mean) (LPS-induced fever; T = 0 min (2 hours after LPS challenge), transdermal, 20 mg/kg): 38.30; body temperature (Mean) (LPS-induced fever; T = 90 min, transdermal, 20 mg/kg): 37.37; body temperature (Mean) (LPS-induced fever; T = 180 min, transdermal, 20 mg/kg): 36.78; body temperature (Mean) (LPS-induced fever; T = 270 min, transdermal, 20 mg/kg): 36.65; survival (H1N1 virus [2]; group 2, low dose 25.0 mg/kg): 40%; survival (H1N1 virus [2]; group 3, mid dose 50.0 mg/kg): 50%; survival (H1N1 virus [2]; group 4, high dose 100.0 mg/kg): 60%
CC(C(=O)OCC1CCCN1)c1cccc(Oc2ccccc2)c1.Cl (centres unmarked) [Example 30, (pyrrolidin-2-yl)methyl 2-(3-phenoxyphenyl) propionate hydrochloride] | – | – | – | – | survival ([5]; group 2, low dose 25.1 mg/kg): 10%; survival ([5]; group 3, mid dose 50.2 mg/kg): 30%; survival ([5]; group 4, high dose 100.3 mg/kg): 40%
CC(=O)Oc1ccc(-c2ccc(F)cc2F)cc1C(=O)OCC1CCCN1.Cl (centres unmarked) [Example 28, (pyrrolidin-2-yl)methyl 5-(2,4-difluorophenyl) acetylsalicylate hydrochloride] | – | – | – | – | survival (H1N1 virus [4]; group 5, low dose 24.7 mg/kg): 40%; survival (H1N1 virus [4]; group 6, mid dose 49.4 mg/kg): 60%; survival (H1N1 virus [4]; group 7, high dose 98.7 mg/kg): 70%
CN(C)C(=O)CCS[C@H](SCCC(=O)O)c1cccc(/C=C/c2ccc3ccc(Cl)cc3n2)c1 [Parent drug-4] | 0.001 | 0.001 | 0.001 | 0.002 | –
CC(C(=O)OCC1CCCN1)c1ccc(C(=O)c2cccs2)cc1.Cl (stereo not drawn) [Example 33, (pyrrolidin-2-yl)methyl α-methyl-4-(2-thienylcarbonyl)benzeneacetate hydrochloride] | – | – | – | – | survival (H1N1 virus [3]; group 5, low dose 24.9 mg/kg): 60%; survival (H1N1 virus [3]; group 6, mid dose 49.8 mg/kg): 50%; survival (H1N1 virus [3]; group 7, high dose 99.6 mg/kg): 40%
CC(c1cc2ccccc2s1)N(O)C(N)=O (centres unmarked) [Parent drug-6] | 0.001 | 0.001 | 0.001 | 0.003 | –
Cl.O=C(OCC1CCCN1)C(c1ccc(OCc2ccc3ccccc3n2)cc1)C1CCCC1 (centres unmarked) [Example 6, (pyrrolidin-2-yl)methyl 2-cyclopentyl-2-[4-(quinolin-2-ylmethoxy)phenyl]acetate hydrochloride] | 0.52 | 1.03 | 2.10 | 4.19 | –
